Results reported in patent US20260116920A1, “HUMAN TRANSFERRIN RECEPTOR BINDING PEPTIDE” (PEPTIDREAM INC., priority 2021, published 2026).

The compounds below were run against T1, human transferrin receptor (hTfR) (Homo sapiens, UniProt P02786) (assay: Evaluation of molecular interaction between transferrin receptor (hTfR) and peptide using surface plasmon resonance (SPR)). Settings: surface plasmon resonance, binding to hTfR; KD class symbol; read-out: SPR (KD value).
T1 construct: made in house
T1 sequence (P02786 89-760 limits assumed): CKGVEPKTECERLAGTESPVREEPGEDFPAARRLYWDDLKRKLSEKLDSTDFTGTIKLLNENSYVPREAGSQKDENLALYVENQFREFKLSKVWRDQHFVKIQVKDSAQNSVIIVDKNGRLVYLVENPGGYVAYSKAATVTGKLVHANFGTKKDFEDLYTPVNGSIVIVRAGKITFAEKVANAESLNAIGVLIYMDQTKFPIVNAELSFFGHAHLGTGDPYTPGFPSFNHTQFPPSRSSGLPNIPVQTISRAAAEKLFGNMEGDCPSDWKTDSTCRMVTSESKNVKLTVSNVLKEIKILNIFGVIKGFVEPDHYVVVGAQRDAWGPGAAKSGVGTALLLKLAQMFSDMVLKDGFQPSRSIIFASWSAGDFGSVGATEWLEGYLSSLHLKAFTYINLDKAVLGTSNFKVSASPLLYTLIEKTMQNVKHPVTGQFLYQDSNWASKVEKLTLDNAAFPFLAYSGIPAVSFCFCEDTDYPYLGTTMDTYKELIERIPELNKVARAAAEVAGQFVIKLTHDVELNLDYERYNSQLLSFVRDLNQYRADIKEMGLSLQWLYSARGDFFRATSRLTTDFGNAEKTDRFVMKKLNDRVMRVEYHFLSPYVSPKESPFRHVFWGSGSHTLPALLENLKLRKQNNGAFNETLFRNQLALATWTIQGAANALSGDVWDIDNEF
Assay type: binding
Outline: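 SPR, single-cycle kinetics; hTfR dimer on NTA chip via Ni capture plus EDC/NHS coupling. Analyte peptide 100, 50, 25, 10, 5 nM. Running buffer: 10 mM HEPES pH 8.0, 150 mM NaCl, 0.05% Tween 20, 0.1% BSA, 1.0% DMSO. KD by least-squares fit.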

Row | SMILES | Kd [nM]
1 | CC[C@H](C)[C@@H]1NC(=O)[C@H](Cc2ccc(OCC(=O)O)cc2)NC(=O)[C@H](Cc2ccc(O)cc2)NC(=O)[C@H](CC(N)=O)NC(=O)[C@H](Cc2cn(CC(=O)O)c3ccccc23)NC(=O)[C@H](C(C)C)NC(=O)[C@H](Cc2cccc(Cl)c2)N(C)C(=O)[C@H](C(C)C)NC(=O)[C@H](C)NC(=O)CSC[C@@H](C(=O)NCCOCCOCCOCCOCCC(N)=O)NC(=O)[C@H](Cc2ccc(O)cc2)N(C)C(=O)[C@H](Cc2cccc(C(=O)O)c2)NC(=O)[C@H](CCCNC(=N)N)NC(=O)[C@H](CCC(=O)NCCOCCOCCOCCOCCOCCOCCOCCOC)NC(=O)[C@H]([C@@H](C)CC)NC1=O [compound 103] | 1 to 100
2 | CC[C@H](C)[C@@H]1NC(=O)[C@H](Cc2ccc(OCC(=O)O)cc2)NC(=O)[C@H](Cc2ccc(O)cc2)NC(=O)[C@H](CC(N)=O)NC(=O)[C@H](Cc2cn(CC(=O)O)c3ccccc23)NC(=O)[C@H](C(C)C)NC(=O)[C@H](Cc2cccc(Cl)c2)N(C)C(=O)[C@H](C(C)C)NC(=O)[C@H](C)NC(=O)CSC[C@@H](C(=O)NCCOCCOCCOCCOCCC(N)=O)NC(=O)[C@H](Cc2ccc(O)cc2)N(C)C(=O)[C@H](Cc2ccccc2)NC(=O)[C@H](CCC(N)=O)NC(=O)[C@H](CCCNC(=N)N)NC(=O)[C@H]([C@@H](C)CC)NC1=O [compound 105] | 1 to 100
3 | CC[C@H](C)[C@@H]1NC(=O)[C@H](Cc2ccc(OCC(=O)O)cc2)NC(=O)[C@H](Cc2ccc(O)cc2)NC(=O)[C@H](CC(N)=O)NC(=O)[C@H](Cc2cn(CC(=O)O)c3ccccc23)NC(=O)[C@H](C(C)C)NC(=O)[C@H](Cc2cccc(Cl)c2)N(C)C(=O)[C@H](C(C)C)NC(=O)[C@H](C)NC(=O)CSC[C@@H](C(=O)NCCOCCOCCOCCOCCC(N)=O)NC(=O)[C@H](Cc2ccc(O)cc2)N(C)C(=O)[C@H](Cc2ccccc2)NC(=O)[C@H](CCCNC(=N)N)NC(=O)[C@H](CCC(=O)NCCOCCOCCOCCOC)NC(=O)[C@H]([C@@H](C)CC)NC1=O [compound 110] | 1 to 100
4 | CC[C@H](C)[C@@H]1NC(=O)[C@H](Cc2ccc(OCC(=O)O)cc2)NC(=O)[C@H](Cc2ccc(O)cc2)NC(=O)[C@H](CC(N)=O)NC(=O)[C@H](Cc2cn(CC(=O)O)c3ccccc23)NC(=O)[C@H](C(C)C)NC(=O)[C@H](Cc2cccc(Cl)c2)N(C)C(=O)[C@H](C(C)C)NC(=O)[C@H](C)NC(=O)CSC[C@@H](C(=O)NCCOCCOCCOCCOCCC(N)=O)NC(=O)[C@H](Cc2ccc(O)cc2)N(C)C(=O)[C@H](Cc2ccccc2)NC(=O)[C@H](CCCNC(=N)N)NC(=O)[C@H](CCC(=O)NC(COC)COC)NC(=O)[C@H]([C@@H](C)CC)NC1=O [compound 111] | 1 to 100
5 | CC[C@H](C)[C@@H]1NC(=O)[C@H](Cc2ccc(OCC(=O)O)cc2)NC(=O)[C@H](Cc2ccc(O)cc2)NC(=O)[C@H](CC(N)=O)NC(=O)[C@H](Cc2c[nH]c3ccccc23)NC(=O)[C@H](C(C)C)NC(=O)[C@H](Cc2cccc(Cl)c2)N(C)C(=O)[C@H](C(C)C)NC(=O)[C@H](C)NC(=O)CSC[C@@H](C(=O)NCCOCCOCCOCCOCCC(N)=O)NC(=O)[C@H](Cc2ccc(O)cc2)N(C)C(=O)[C@H](Cc2ccccc2)NC(=O)[C@H](CCCNC(=N)N)NC(=O)[C@H](CCC(=O)NCCOCCOCCOCCOC)NC(=O)[C@H]([C@@H](C)CC)NC1=O [compound 113] | 1 to 100

The next lines start with the values.

Row | Kd [nM] | SMILES
6 | 1 to 100 | CC[C@H](C)[C@@H]1NC(=O)[C@H](Cc2ccc(OCC(=O)O)cc2)NC(=O)[C@H](Cc2ccc(O)cc2)NC(=O)[C@H](CC(N)=O)NC(=O)[C@H](Cc2cn(CC(=O)O)c3ccccc23)NC(=O)[C@H](C(C)C)NC(=O)[C@H](Cc2cccc(Cl)c2)N(C)C(=O)[C@H](C(C)C)NC(=O)[C@H](C)NC(=O)CSC[C@@H](C(=O)NCCOCCOCCOCCOCCC(N)=O)NC(=O)[C@H](Cc2ccc(O)cc2)N(C)C(=O)[C@H](Cc2ccccc2)NC(=O)[C@H](CCC(=O)NCCOCCOCCOCCOCCOCCOCCOCCOC)NC(=O)[C@H](CCCNC(=N)N)NC(=O)[C@H]([C@@H](C)CC)NC1=O [compound 102]
7 | 1 to 100 | CC[C@H](C)[C@@H]1NC(=O)[C@H](Cc2ccc(OCC(=O)O)cc2)NC(=O)[C@H](Cc2ccc(O)cc2)NC(=O)[C@H](CC(N)=O)NC(=O)[C@H](Cc2cn(CC(=O)O)c3ccccc23)NC(=O)[C@H](C(C)C)NC(=O)[C@H](Cc2cccc(Cl)c2)N(C)C(=O)[C@H](C(C)C)NC(=O)[C@H](C)NC(=O)CSC[C@@H](C(=O)NCCOCCOCCOCCOCCC(N)=O)NC(=O)[C@H](Cc2ccc(O)cc2)N(C)C(=O)[C@H](Cc2ccccc2)NC(=O)[C@H](CCCNC(=N)N)NC(=O)[C@H](CCC(N)=O)NC(=O)[C@H]([C@@H](C)CC)NC1=O [compound 104]
8 | 1 to 100 | CC[C@H](C)[C@@H]1NC(=O)[C@H](Cc2ccc(O)cc2)NC(=O)[C@H](Cc2ccc(O)cc2)NC(=O)[C@H](CC(N)=O)NC(=O)[C@H](Cc2c[nH]c3ccccc23)NC(=O)[C@H](C(C)C)NC(=O)[C@H](Cc2ccccc2)N(C)C(=O)[C@H](C(C)C)NC(=O)[C@H](C)NC(=O)CSC[C@@H](C(=O)NCC(=O)N[C@H](CCC(=O)O)C(=O)N[C@H](CCC(=O)O)C(=O)N[C@H](CCC(=O)O)C(=O)N[C@H](CCC(=O)O)C(=O)N[C@H](CCC(=O)O)C(=O)N[C@@H](CSCC(=O)NC)C(N)=O)NC(=O)[C@H](Cc2ccc(O)cc2)N(C)C(=O)[C@H](Cc2ccc(O)cc2)NC(=O)[C@H](CCCNC(=N)N)NC(=O)[C@H](CCCNC(=N)N)NC(=O)[C@H]([C@@H](C)CC)NC1=O [compound 107]
9 | < 1 | CC[C@H](C)[C@@H]1NC(=O)[C@H](Cc2ccc(OC)cc2)NC(=O)[C@H](Cc2ccc(O)cc2)NC(=O)[C@H](CC(N)=O)NC(=O)[C@H](Cc2cn(CC(=O)O)c3ccccc23)NC(=O)[C@H](C(C)C)NC(=O)[C@H](Cc2cccc(Cl)c2)N(C)C(=O)[C@H](C(C)C)NC(=O)[C@H](C)NC(=O)CSC[C@@H](C(=O)NCCOCCOCCOCCOCCC(N)=O)NC(=O)[C@H](Cc2ccc(O)cc2)N(C)C(=O)[C@H](Cc2ccccc2)NC(=O)[C@H](CCCNC(=N)N)NC(=O)[C@H](CCCNC(=N)N)NC(=O)[C@H]([C@@H](C)CC)NC1=O [compound 108]
10 | < 1 | CC[C@H](C)[C@@H]1NC(=O)[C@H](Cc2ccc(OCC(=O)O)cc2)NC(=O)[C@H](Cc2ccc(O)cc2)NC(=O)[C@H](CC(N)=O)NC(=O)[C@H](Cc2c[nH]c3ccccc23)NC(=O)[C@H](C(C)C)NC(=O)[C@H](Cc2cccc(Cl)c2)N(C)C(=O)[C@H](C(C)C)NC(=O)[C@H](C)NC(=O)CSC[C@@H](C(=O)NCCOCCOCCOCCOCCC(N)=O)NC(=O)[C@H](Cc2ccc(O)cc2)N(C)C(=O)[C@H](Cc2ccccc2)NC(=O)[C@H](CCCNC(=N)N)NC(=O)[C@H](CCCNC(=N)N)NC(=O)[C@H]([C@@H](C)CC)NC1=O [compound 109]
11 | < 1 | CC[C@H](C)[C@@H]1NC(=O)[C@H](Cc2ccc(OCC(=O)O)cc2)NC(=O)[C@H](Cc2ccc(O)cc2)NC(=O)[C@H](CC(N)=O)NC(=O)[C@H](Cc2c[nH]c3ccccc23)NC(=O)[C@H](C(C)C)NC(=O)[C@H](Cc2cccc(Cl)c2)N(C)C(=O)[C@H](C(C)C)NC(=O)[C@H](C)NC(=O)CSC[C@@H](C(=O)NCCOCCOCCOCCOCCC(N)=O)NC(=O)[C@H](Cc2ccc(O)cc2)N(C)C(=O)[C@H](Cc2ccccc2)NC(=O)[C@H](CCCNC(=N)N)NC(=O)[C@H](CCC(=O)NCCOCCOCCOCCOCCOCCOCCOCCOC)NC(=O)[C@H]([C@@H](C)CC)NC1=O [compound 112]
